Converted amounts (≈) assume the structure as drawn.
How the values were obtained:
Test in all cases: In vitro antibiotic activity, agar dilution method (Mueller-Hinton agar, NCCLS)
Assay type in all cases: cell-based
E. coli ATCC 25922 = details: Escherichia coli, ATCC25922; agar dilution, Mueller-Hinton agar; read-out: MIC for E. coli ATCC 25922
Procedure: (§1) To measure the antibiotic activity of the compounds prepared by Examples, antibiotic activity test in vitro was performed by agar dilution method using Mueller-Hinton agar according to the NCCLS (National Committee for Clinical Laboratory Standards. 2000. Methods for dilution antimicrobial susceptibility tests for bacteria that grow aerobiocally. Approved standard, NCCLS document M7-M5, 5th ed, vol 20, no 2. National Committee for Clinical Laboratory Standards, Wayne, Pa.). The test strain was Escherichia coli (ATCC 25922), Klebsiella pneumonia (ATCC 29665) and Pseudomonas aeriginosa (PAO1).

K. pneumoniae ATCC 29665 = details: Klebsiella pneumoniae, ATCC29665; agar dilution, Mueller-Hinton agar; read-out: MIC for K. pneumoniae ATCC 29665
Procedure: as §1

P. aeruginosa PAO1 = details: Pseudomonas aeruginosa, PAO1; agar dilution, Mueller-Hinton agar; read-out: MIC for P. aeruginosa PAO1
Procedure: as §1

Structure (SMILES) | MIC (E. coli ATCC 25922) | MIC (K. pneumoniae ATCC 29665) | MIC (P. aeruginosa PAO1)
COCC#CC#Cc1ccc(C2=CCN(CCC(C)(C(=O)NO)S(C)(=O)=O)CC2)cc1 (stereo not drawn) [Example 50, N-hydroxy-4-(4-(4-(5-methoxypenta-1,3-diyn-1-yl)phenyl)-3,6-dihydropyridin-1(2H)-yl)-2-methyl-2-(methylsulfonyl)butanamide] | < 1 µg/mL | 1 to 8 µg/mL (≈ 2.25 to 18 µM) | < 1 µg/mL
CC(CCN1CC=C(c2ccc(C#CCN3CCOCC3)cc2)CC1)(C(=O)NO)S(C)(=O)=O (stereo not drawn) [Example 25, N-hydroxy-2-methyl-2-(methylsulfonyl)-4-(4-(4-(3-morpholinoprop-1-yn-1-yl)phenyl)-3,6-dihydropyridin-1(2H)-yl)butanamide] | 1 to 8 µg/mL (≈ 2.1 to 16.8 µM) | 1 to 8 µg/mL (≈ 2.1 to 16.8 µM) | 1 to 8 µg/mL (≈ 2.1 to 16.8 µM)
COc1ccc(C#Cc2ccc(C3=CCN(CCC(C)(C(=O)NO)S(C)(=O)=O)CC3)cc2)cc1 (stereo not drawn) [Example 3, N-hydroxy-4-(4-(4-((4-methoxyphenyl)ethynyl)phenyl)-3,6-dihydropyridin-1(2H)-yl)-2-methyl-2-(methylsulfonyl)butanamide] | > 16 µg/mL | 1 to 8 µg/mL (≈ 2.07 to 16.6 µM) | > 16 µg/mL
CC(CCN1CC=C(c2ccc(C#Cc3ccc([N+](=O)[O-])cc3)cc2)CC1)(C(=O)NO)S(C)(=O)=O (stereo not drawn) [Example 35, N-hydroxy-2-methyl-2-(methylsulfonyl)-4-(4-(4-((4-nitrophenyl)ethynyl)phenyl)-3,6-dihydropyridin-1(2H)-yl)butanamide] | > 16 µg/mL | > 16 µg/mL | > 16 µg/mL
CC(CCN1CC=C(c2ccc(C#CCN3CCCC3)cc2)CC1)(C(=O)NO)S(C)(=O)=O (stereo not drawn) [Example 15, N-hydroxy-2-methyl-2-(methylsulfonyl)-4-(4-(4-(3-(pyrrolidin-1-yl)prop-1-yn-1-yl)phenyl)-3,6-dihydropyridin-1(2H)-yl)butanamide] | 1 to 8 µg/mL (≈ 2.18 to 17.4 µM) | 8 to 16 µg/mL (≈ 17.4 to 34.8 µM) | 1 to 8 µg/mL (≈ 2.18 to 17.4 µM)
CC(CCN1CC=C(c2ccc(-c3ccsc3)cc2)CC1)(C(=O)NO)S(C)(=O)=O (stereo not drawn) [Example 70, N-hydroxy-2-methyl-2-(methylsulfonyl)-4-(4-(4-(thiophen-3-yl)phenyl)-3,6-dihydropyridin-1(2H)-yl)butanamide] | < 1 µg/mL | < 1 µg/mL | > 16 µg/mL
CC(CCN1CC=C(c2ccc(C#CC3CC3)cc2)CC1)(C(=O)NO)S(C)(=O)=O (stereo not drawn) [Example 4, 4-(4-(4-(cyclopropylethynyl)phenyl)-3,6-dihydropyridin-1(2H)-yl)-N-hydroxy-2-methyl-2-(methylsulfonyl)butanamide] | < 1 µg/mL | < 1 µg/mL | 1 to 8 µg/mL (≈ 2.4 to 19.2 µM)
Cn1cnc(C#Cc2ccc(C3=CCN(CCC(C)(C(=O)NO)S(C)(=O)=O)CC3)cc2)c1 (stereo not drawn) [Example 38, N-hydroxy-2-methyl-4-(4-(4-((1-methyl-1H-imidazol-4-yl)ethynyl)phenyl)-3,6-dihydropyridin-1(2H)-yl)-2-(methylsulfonyl)butanamide] | < 1 µg/mL | 1 to 8 µg/mL (≈ 2.19 to 17.5 µM) | 1 to 8 µg/mL (≈ 2.19 to 17.5 µM)
CC(CCN1CC=C(c2ccc(C#CC#CCCO)c(F)c2)CC1)(C(=O)NO)S(C)(=O)=O (stereo not drawn) [Example 43, 4-(4-(3-fluoro-4-(6-hydroxyhexa-1,3-diyn-1-yl)phenyl)-3,6-dihydropyridin-1(2H)-yl)-N-hydroxy-2-methyl-2-(methylsulfonyl)butanamide] | < 1 µg/mL | 1 to 8 µg/mL (≈ 2.16 to 17.3 µM) | 1 to 8 µg/mL (≈ 2.16 to 17.3 µM)
CC(CCN1CC=C(c2ccc(C#CC3CCCC3)cc2)CC1)(C(=O)NO)S(C)(=O)=O (stereo not drawn) [Example 9, 4-(4-(4-(cyclopentylethynyl)phenyl)-3,6-dihydropyridin-1(2H)-yl)-N-hydroxy-2-methyl-2-(methylsulfonyl)butanamide] | < 1 µg/mL | 1 to 8 µg/mL (≈ 2.25 to 18 µM) | > 16 µg/mL
COCC#Cc1ccc(C2=CCN(CCC(C)(C(=O)NO)S(C)(=O)=O)CC2)cn1 (stereo not drawn) [Example 75, N-hydroxy-4-(6-(3-methoxyprop-1-yn-1-yl)-3′,6′-dihydro-[3,4′-bipyridin]-1′(2′H)-yl)-2-methyl-2-(methylsulfonyl)butanamide] | > 16 µg/mL | > 16 µg/mL | > 16 µg/mL
CC(CCN1CC=C(c2ccc(C#CCN3CCC[C@H]3CO)cc2)CC1)(C(=O)NO)S(C)(=O)=O (stereo partly drawn) [Example 17, N-hydroxy-4-(4-(4-(3-((S)-2-(hydroxymethyl)pyrrolidin-1-yl)prop-1-yn-1-yl)phenyl)-3,6-dihydropyridin-1(2H)-yl)-2-methyl-2-(methylsulfonyl)butanamide] | > 16 µg/mL | 8 to 16 µg/mL (≈ 16.3 to 32.7 µM) | 1 to 8 µg/mL (≈ 2.04 to 16.3 µM)
CC(CCN1CC=C(c2ccc(C#CCCO)cc2)CC1)(C(=O)NO)S(C)(=O)=O (stereo not drawn) [Example 5, N-hydroxy-4-(4-(4-(4-hydroxybut-1-yn-1-yl)phenyl)-3,6-dihydropyridin-1(2H)-yl)-2-methyl-2-(methylsulfonyl)butanamide] | 1 to 8 µg/mL (≈ 2.38 to 19 µM) | 8 to 16 µg/mL (≈ 19 to 38 µM) | 1 to 8 µg/mL (≈ 2.38 to 19 µM)
CC(CCN1CC=C(c2ccc(-c3ccc(F)nc3)cc2)CC1)(C(=O)NO)S(C)(=O)=O (stereo not drawn) [Example 62, 4-(4-(4-(6-fluoropyridin-3-yl)phenyl)-3,6-dihydropyridin-1(2H)-yl)-N-hydroxy-2-methyl-2-(methylsulfonyl)butanamide] | < 1 µg/mL | 1 to 8 µg/mL (≈ 2.23 to 17.9 µM) | 1 to 8 µg/mL (≈ 2.23 to 17.9 µM)
CC(CCN1CC=C(c2ccc(C#CC3CCCCC3)cc2)CC1)(C(=O)NO)S(C)(=O)=O (stereo not drawn) [Example 10, 4-(4-(4-(cyclohexylethynyl)phenyl)-3,6-dihydropyridin-1(2H)-yl)-N-hydroxy-2-methyl-2-(methylsulfonyl)butanamide] | 1 to 8 µg/mL (≈ 2.18 to 17.4 µM) | 8 to 16 µg/mL (≈ 17.4 to 34.9 µM) | 8 to 16 µg/mL (≈ 17.4 to 34.9 µM)
CC(CCN1CC=C(c2ccc(C#CC#CCO)cc2)CC1)(C(=O)NO)S(C)(=O)=O (stereo not drawn) [Example 48, N-hydroxy-4-(4-(4-(5-hydroxypenta-1,3-diyn-1-yl)phenyl)-3,6-dihydropyridin-1(2H)-yl)-2-methyl-2-(methylsulfonyl)butanamide] | < 1 µg/mL | 1 to 8 µg/mL (≈ 2.32 to 18.6 µM) | < 1 µg/mL
CC(CCN1CC=C(c2ccc(C#Cc3cccs3)cc2)CC1)(C(=O)NO)S(C)(=O)=O (stereo not drawn) [Example 34, N-hydroxy-2-methyl-2-(methylsulfonyl)-4-(4-(4-(thiophen-2-ylethynyl)phenyl)-3,6-dihydropyridin-1(2H)-yl)butanamide] | < 1 µg/mL | 1 to 8 µg/mL (≈ 2.18 to 17.4 µM) | 1 to 8 µg/mL (≈ 2.18 to 17.4 µM)
CC(=O)N1CC(C#Cc2ccc(C3=CCN(CCC(C)(C(=O)NO)S(C)(=O)=O)CC3)cc2)C1 (stereo not drawn) [Example 40, 4-(4-(4-((1-acetylazetidin-3-yl)ethynyl)phenyl)-3,6-dihydropyridin-1(2H)-yl)-N-hydroxy-2-methyl-2-(methylsulfonyl)butanamide] | 1 to 8 µg/mL (≈ 2.11 to 16.9 µM) | 1 to 8 µg/mL (≈ 2.11 to 16.9 µM) | 1 to 8 µg/mL (≈ 2.11 to 16.9 µM)
CC(CCN1CC=C(c2ccc(C#CC#CC3CC3)c(F)c2)CC1)(C(=O)NO)S(C)(=O)=O (stereo not drawn) [Example 44, 4-(4-(4-(cyclopropylbuta-1,3-diyn-1-yl)-3-fluorophenyl)-3,6-dihydropyridin-1(2H)-yl)-N-hydroxy-2-methyl-2-(methylsulfonyl)butanamide] | < 1 µg/mL | 1 to 8 µg/mL (≈ 2.18 to 17.4 µM) | 1 to 8 µg/mL (≈ 2.18 to 17.4 µM)
CN(C)CC#Cc1c(F)cc(C2=CCN(CCC(C)(C(=O)NO)S(C)(=O)=O)CC2)cc1F (stereo not drawn) [Example 32, 4-(4-(4-(3-(dimethylamino)prop-1-yn-1-yl)-3,5-difluorophenyl)-3,6-dihydropyridin-1(2H)-yl)-N-hydroxy-2-methyl-2-(methylsulfonyl)butanamide] | < 1 µg/mL | 1 to 8 µg/mL (≈ 2.13 to 17 µM) | 1 to 8 µg/mL (≈ 2.13 to 17 µM)
CC(CCN1CC=C(c2ccc(-c3ccc(CO)cc3)cc2)CC1)(C(=O)NO)S(C)(=O)=O (stereo not drawn) [Example 65, N-hydroxy-4-(4-(4′-(hydroxymethyl)-[1,1′-biphenyl]-4-yl)-3,6-dihydropyridin-1(2H)-yl)-2-methyl-2-(methylsulfonyl)butanamide] | < 1 µg/mL | 8 to 16 µg/mL (≈ 17.4 to 34.9 µM) | > 16 µg/mL
CC(CCN1CC=C(c2ccc(C#CCCCN)cc2)CC1)(C(=O)NO)S(C)(=O)=O (stereo not drawn) [Example 21, 4-(4-(4-(5-aminopent-1-yn-1-yl)phenyl)-3,6-dihydropyridin-1(2H)-yl)-N-hydroxy-2-methyl-2-(methylsulfonyl)butanamide] | 8 to 16 µg/mL (≈ 18.5 to 36.9 µM) | > 16 µg/mL | > 16 µg/mL
CC(CCN1CC=C(c2ccc(-c3ccc(S(=O)(=O)N4CCC4)cc3)cc2)CC1)(C(=O)NO)S(C)(=O)=O (stereo not drawn) [Example 68, 4-(4-(4′-(azetidin-1-ylsulfonyl)-[1,1′-biphenyl]-4-yl)-3,6-dihydropyridin-1(2H)-yl)-N-hydroxy-2-methyl-2-(methylsulfonyl)butanamide] | < 1 µg/mL | 1 to 8 µg/mL (≈ 1.83 to 14.6 µM) | 1 to 8 µg/mL (≈ 1.83 to 14.6 µM)
CC(CCN1CC=C(C#Cc2ccncc2)CC1)(C(=O)NO)S(C)(=O)=O (stereo not drawn) [Example 52, N-hydroxy-2-methyl-2-(methylsulfonyl)-4-(4-(pyridin-4-ylethynyl)-3,6-dihydropyridin-1(2H)-yl)butanamide] | 8 to 16 µg/mL (≈ 21.2 to 42.4 µM) | > 16 µg/mL | > 16 µg/mL
CCS(=O)(=O)c1ccc(-c2ccc(C3=CCN(CCC(C)(C(=O)NO)S(C)(=O)=O)CC3)cc2)cc1.Cl (stereo not drawn) [Example 73, 4-(4-(4′-(ethylsulfonyl)-[1,1′-biphenyl]-4-yl)-3,6-dihydropyridin-1(2H)-yl)-N-hydroxy-2-methyl-2-(methylsulfonyl)butanamide hydrochloride] | < 1 µg/mL | 1 to 8 µg/mL | 1 to 8 µg/mL
COc1ccc(-c2ccc(C3=CCN(CCC(C)(C(=O)NO)S(C)(=O)=O)CC3)cc2)cc1F (stereo not drawn) [Example 60, 4-(4-(3′-fluoro-4′-methoxy-[1,1′-biphenyl]-4-yl)-3,6-dihydropyridin-1(2H)-yl)-N-hydroxy-2-methyl-2-(methylsulfonyl)butanamide] | < 1 µg/mL | 8 to 16 µg/mL (≈ 16.8 to 33.6 µM) | > 16 µg/mL
